According to patent US10668032B2 (SyneuRx International (Taiwan) Corp., priority 2016, dated 2020):

Experiments:
[1] = system: cortical cells with Aβ25-35 exposure; assay: Aβ25-35 cytotoxicity with or without NMDA receptor antagonist MK801, cell survival
Experimental: Aβ25-35 (Cat. No. A4559, Sigma) was dissolved in autoclaved ddH2O to make a stock solution of 2 mM, dispensed into aliquots, and immediately stored at −80° C. until use.
In this study, the application of MK801 could reveal whether the neuroprotective effects of drugs were mediated by NMDA receptor.

[2] = system: GFAP positive cells in cortical culture; assay: GFAP immunocytochemistry in cortical culture after Aβ25-35; format: cell-based, rat
Experimental: Cells were fixed in 4% PFA and washed in PBS, blocked with 2% bovine serum albumin (BSA) and 0.03% Triton X-100 in PBS, and then incubated with mouse monoclonal antibody against microtubule-associated protein-2 (MAP-2) (Cat. No. MAB378, 1:150, CHEMICON International, Inc., Temecula, Calif., USA); rabbit polyclonal antibody against GFAP (Cat. No. Z0334, 1:600, DakoCytomation Denmark A/S, Denmark). The goat anti-mouse IgG Alexa Fluor-conjugated secondary antibodies (1:500; Cat No. A11003, Thermo Scientific); anti-rabbit IgG Alexa Fluor-conjugated secondary antibodies (1:500; Thermo Scientific) were applied respectively to recognize the primary antibodies of the MAP-2 and GFAP.
(§1) The coverslips were observed under a digital imaging fluorescence microscope (Olympus BX61; Japan) equipped with filter sets to detect the corresponding fluorescence signals.
Glial fibrillary acidic protein (GFAP) is an intermediate filament protein expressed by cells in the CNS, and is also recognized as an astrocyte maturation marker. Upregulation of GFAP, indicating gliosis, is commonly observed after CNS lesion; therefore, expression of GFAP could be useful to understand the state of neurological diseases.

primary cortical cells = assay: Neurogenesis (BrdU/NeuN co-localization) in primary cortical culture after Aβ25-35; format: cell-based, rat; settings: 0.5 mM, 4 days; compared with the other two drugs
Experimental: Primary cortical cultures were prepared from embryonic day 18 (E18) fetal Spragu-Dawley (SD) rat brains. Culture medium was removed from cells and replace with BrdU labeling solution and incubated at 37° C. for 4 days aligned with treatments after Aβ25-35 for 2 days. Cells were fixed in 4% PFA and washed in PBS, blocked with 2% bovine serum albumin (BSA) and 0.03% Triton X-100 in PBS, acid-washed with 2N HCl and phosphate/citric acid buffer (pH 7.4). Next, anti-BrdU primary antibody (1:250, Thermo Scientific) or anti-NeuN primary antibody (1:300, Abcam) were added. The goat anti-rat IgGAlexa Fluor-conjugated secondary antibodies (1:200; Thermo Scientific); anti-mouse IgG Alexa Fluor-conjugated secondary antibodies (1:500; Thermo Scientific) were applied to recognize the primary antibodies of the BrdU and NeuN respectively.
as §1
The second part of mechanism study was focused on neurogenesis. The impairment of neurogenesis in the adult hippocampus has been an important evidence of the pathogenesis of Alzheimer's disease. […]

cortical neurons = assay: Mitochondrial respiration, XF Cell Mito Stress Test (OCR); format: cell-based, rat; settings: 3 mM, pre-treatment 24 h
Experimental: The preparation of primary cortical culture was as described before, but the cells were seeded on XF 96 well cell culture microplates. On the day of assay, culture media were changed to XF Assay medium (Seahorse Biosciences, USA). Prior to assay, plates were transferred into an incubator with CO2 supplementation at 37° C. and kept for 1 hour. The overall OCR was calculated.
The XF Cell Mito Stress Test modulates respiration that target components of the electron transport chain (ETC) in the mitochondria to reveal key parameters of metabolic function. The modulators (oligomycin, FCCP, and a mix of rotenone and antimycin A) are serially injected to measure ATP production, maximal respiration, and non-mitochondrial respiration. Proton leak and spare respiratory capacity are then calculated using these parameters.

With `O=C([O-])c1ccccc1.[Li+]` [lithium benzoate] the “protective effect with or without MK801 treatment” value ([1]; 0.5 mM, MK801 10 μM vs 0 μM) was “No obvious differences”, the “cell survival with Aβ25-35 exposure” value ([1]; post-treatment 0.5 mM, MK801 0 μM) was “elevate the cell survival” and the “reduction of GFAP positive cells compared with LiCl” value ([2]; LiBen 0.5 mM vs LiCl 1 mM) was “better effect than LiCl”. For the same compound, the “number of GFAP positive cells after Aβ25-35 exposure” value ([2]; post-treatment 0.5 mM) was “significantly reduced”, the “neurogenesis (BrdU(+)/NeuN(+) cells) after Aβ25-35 exposure” value (primary cortical cells) was “unsurpassed performance of neurogenesis” and the “basal respiration (basal OCR)” value (cortical neurons) was “reduced more basal OCR than the other groups”. The spare respiratory capacity (cortical neurons) was “increasing of spare respiratory capacity”, the ATP production (cortical neurons; versus NaBen or LiCl) was “better reduction levels” and the proton leak (cortical neurons; versus NaBen or LiCl) was “better reduction levels”.
